What all share (type): in vivo, rat
The subject of experiment [1] is AMP-activated protein kinase (AMPK). Put plainly: AMPK activity in ammonium sulfate precipitates of muscle homogenates after s.c. AICAR injection. The method, then:
Three days prior to the experiment, jugular cathethers were installed and exteriorized on the back of the neck to allow rapid anesthesia of the rat and rapid blood and tissue collection. Rats were then injected with AICAR (1 mg/g body wt) subcutaneously in sterile 0.9% NaCl or were given 0.9% NaCl (n=6 rats per group). One hour after the subcutaneous injection, rats were anesthetized by intravenous injection of pentobarbital sodium (4.8 mg/100 g body wt). The superficial white and the deep red regions of the quadriceps muscles, and the soleus muscles were quickly removed and frozen with stainless steel clamps at liquid nitrogen temperature.
Resuspended ammonium sulfate precipitates of tissue homogenates were analyzed for AMPK activity and acetyl-CoA carboxylase activity as described previously. Li, B., et al. J. Biol. Chem. 274:17534-17540, 1999; Winder, W. W., & D. G. Hardie Am. J. Physiol. 270:E299-E304, 1996. […] ACC activity at 0.2 mM citrate provides some indication of the in vivo activity of AMPK, since ACC is a target for phosphorylation of AMPK. ACC activity has previously been reported to decrease in response to phosphorylation by AMPK. Winder, W. W., & D. G. Hardie Am. J. Physiol. 270:E299-E304, 1996. The acute experiment was also repeated on rats treated with AICAR or saline for 4 weeks to see if the responses of AMPK and ACC to AICAR persisted for the entire treatment period. In both experiments ATP and CP were measured on neutralized perchloric acid extracts of muscle.

The test system of experiment [2] is lactate dehydrogenase. Put plainly: Muscle lactate dehydrogenase activity after chronic AICAR injection. To be noted: chronic AICAR 1 mg/g daily 4 wk. As to the method: (§1) To determine the effect of chronic injection of AICAR on muscle enyzme activities or expression and on muscle GLUT4, rats were injected subcutaneously (between 8 and 10 a.m.) with AICAR (1 mg/g) or saline vehicle daily for 28±1 days in succession. Beginning with the first injection, controls were pair fed with AICAR-injected rats. Rats were anesthetized by intraperitoneal injection of pentobarbital sodium 22-25 hours after the last AICAR injection and the white and red regions of the quadriceps and the soleus muscles were removed and frozen as described above. Muscles were kept frozen at −70° C. until analyzed. Liver, heart, kidney, and fat pads were weighed.
(§2) For enzyme activity measurements, 10% homogenates were made from the respective muscles in 175 mM KCl, 10 mM GSH, 2 mM EDTA, pH 7.4. This homogenate was frozen and thawed 3 times and mixed thoroughly prior to enzymatic measurements. For succinate dehydrogenase and lactate dehydrogenase, an aliquot of the homogenate was centrifuged at 700×g for 10 min at 4° C. The remainder of the assays were performed on aliquots and dilutions of the mixed whole homogenate. Assays were performed by the following methods: citrate synthase, succinate dehydrogenase, the mitochondrial fraction of malate dehydrogenase, hexokinase, lactate dehydrogenase, carnitine palmitoyl transferase and hydroxyacyl-CoA dehydrogenase. Srere, P. A. Methods in Enzymology 13:3-6, 1969; King, T. E. Methods Enzymol 10:322-335, 1967; Shonk, C. E. & G. E. Boxer, Cancer Res. 24:709-721, 1964; Uyeda, K., & E. Racker, J. Biol Chem 240:4682-4688, 1965; Pesce, A., et al. J. Biol. Chem. 239:1753-1761, 1964; Baldwin, K. M., et al. Am. J. Physiol 222:373-378, 1972; Mole, P. A., et al. J. Clin. Invest. 50:2323-2330, 1971; Kobayashi, A. et al. J. Biochem. 119:775-782, 1996.

In experiment [3] the test system is carnitine palmitoyl-transferase. Put plainly: Muscle carnitine palmitoyl-transferase activity after chronic AICAR injection. The settings on record: chronic AICAR 1 mg/g daily 4 wk. The method, then:
as §1, §2

Experiment [4] has as its system citrate synthase. Put plainly: Muscle citrate synthase activity after chronic or intermittent AICAR injection. To be noted: for citrate synthase activity vs saline-injected controls: AICAR 4 weeks, FIG. 3. The method, then: as §1
After obtaining results on blunted acute response to an AICAR injection on AMPK in chronically treated rats, an additional experiment was done to determine if intermittent treatment of rats with AICAR would influence the extent of the increase in citrate synthase. This experiment was also of shorter duration to minimize down regulation that appeared to occur with prolonged treatment. Rats were injected for three days (1 mg/g) followed by two days of no treatment. They were then injected for five days, followed by another two days with no treatment and then for three additional days before killing 20-24 hours following the last injection. Rats were anesthetized and tissues were collected and frozen as before. Analytical methods. Muscles from rats killed 1 h after injection of AICAR or saline were analyzed for AMPK, acetyl-CoA carboxylase (ACC) at 0.2 mM citrate, ATP and CP and ZMP. Li, B., et al. J. Biol. Chem. 274:17534-17540, 1999; Winder, W. W., & D. G. Hardie Am. J. Physiol. 270:E299-E304, 1996; Heinz, F., & H. Weisser. Creatine phosphate. In: Methods of Enzymatic Analysis, edited by H. U. Bergmeyer. New York: Academic, 1983, p. 507-514.
as §2

A short description of experiment [5]: Muscle weights in 3-day denervated and contralateral control muscles. To be noted: same in both treatment groups. The method, then:
Rats were anesthetized with ether and the sciatic nerve of the right hindlimb was severed. The left hindlimb was sham operated to serve as a control. Both skin wounds were closed with a metal clips. The rats used for the acute study were also implanted with a jugular catheter which was exteriorized on the back of the neck at the time of denervation for rapid administration of anesthesia.
Rats were injected either with AICAR (1 mg in 0.9% NaCl/g body weight) or a 0.9% NaCl solution ˜0, ˜24, and ˜48 hours after denervation and were then sacrificed ˜72 hours after denervation without injection. Rats were anesthetized with sodium pentobarbital (4.8 mg/100 g. body weight), soleus and gastrocnemius muscles from both sham and denervated sides were extracted, and muscles were quick frozen in liquid nitrogen and stored for analysis.

The text below walks through data of patent US20030212034A1, “Method of treatment of obesity and paralyzed muscle and ergogenic aids” (priority 2002, published 2003).

As to `NC(=O)c1ncn([C@@H]2O[C@H](CO)[C@@H](O)[C@H]2O)c1N` [AICAR, 5-aminoimidazole-4-carboxamide-1-β-D-ribofuranoside], the AMPK is recorded as 200 ± 17 pmol/g/min in experiment [1] (red quadriceps, 60 min after AICAR injection, after daily injections for 4 wk); 405 ± 62 pmol/g/min in experiment [1] (red quadriceps, 60 min after single AICAR injection 1 mg/g s.c., no chronic treatment); 191 ± 22 pmol/g/min in experiment [1] (soleus, 60 min after AICAR injection, after daily injections for 4 wk); 447 ± 42 pmol/g/min in experiment [1] (soleus, 60 min after single AICAR injection 1 mg/g s.c., no chronic treatment); 258 ± 32 pmol/g/min in experiment [1] (white quadriceps, 60 min after AICAR injection, after daily injections for 4 wk); 1,102 ± 80 pmol/g/min in experiment [1] (white quadriceps, 60 min after single AICAR injection 1 mg/g s.c., no chronic treatment). Besides, the values for the LDH activity in experiment [2] (red quadriceps), in experiment [2] (soleus) and in experiment [2] (white quadriceps) were 557 ± 26 µmol/g/min, 162 ± 7 µmol/g/min and 685 ± 20 µmol/g/min, respectively. Moreover, the CPT activity is 0.46 ± 0.02 µmol/g/min in experiment [3] (red quadriceps), 0.62 ± 0.02 µmol/g/min in experiment [3] (soleus) and 0.16 ± 0.01 µmol/g/min in experiment [3] (white quadriceps). The “citrate synthase activity vs saline-injected controls” value is reported as “not in red quadriceps” in experiment [4] (red quadriceps), “significantly increased” in experiment [4] (soleus) and “significantly increased” in experiment [4] (white quadriceps). The citrate synthase is 57.4 ± 2.5 µmol/g/min in experiment [4] (red region of the quadriceps, intermittent AICAR injections 1 mg/g) and 23.0 ± 1.2 µmol/g/min in experiment [4] (white quadriceps, intermittent AICAR injections 1 mg/g (3 days on, 2 off, 5 on, 2 off, 3 on)). Besides, the “citrate synthase increase vs controls” value in experiment [4] (white quadriceps, intermittent AICAR injections) is 48%. For the same molecule, the “loss of muscle mass after 3 days of denervation” value was approximately 14% in experiment [5] (gastrocnemius) and approximately 20% in experiment [5] (soleus).
